{"source": "patent US20040170645A1", "about": "“Seaweed extract composition for retardation of cardiovascular disorders and preservation of healthy cardiovascular function” (priority 2002, published 2004)", "test_system": "thrombus in the right jugular vein", "test": "Thrombosis test (jugular vein, formalin/methanol initiated)", "assay_type": "in vivo, rat", "conditions": "7.5 mg/kg oral, 4 h", "description": "One hundred and two male Wistar rats, weighing 312±64 g (±SD), were handled and housed according to the Principles of Animal Care set out by the Canadian Federation of Biological Societies. The animals were fasted overnight prior to treatment and were anaesthetized with barbital and methoxyflurane for experimental procedures.\nThe rhamnan-arginine complex was weighed fresh daily. Six to 8 rats were treated per day. […] Thus when the stomach tube was placed in the stomach the drugs were first introduced into the stomach followed by saline to give a total volume of approximately 0.4 ml. In the heparin alone group, heparin was administered in a volume of 0.1-0.2 ml followed by 0.2 ml saline. Control group was saline alone.\nThe thrombosis test was performed by a modification of the procedure by Blake et al. For animals exposed to treatment for 4 h, a thrombus was initiated in the right jugular vein by application of 10% formalin in 65% methanol to the exposed adventitial surface. Immediately following, drugs were introduced into the stomach by stomach tube. […] The clot was scored as + (hard clot) if the vessel is blocked and remained blocked despite examination with a cotton pledget. […] The thrombus was scored as − (negative) if blood was seen to flow freely in the vessel.\nThrombosis data is expressed as a percentage with 95% confidence intervals. […] Other data is expressed as mean ±SE. […]"}
{"substance": "Heparin", "values": [{"measurement": "incidence of hard clots", "result": "reduced the percentage of incidence of hard clots"}, {"measurement": "total incidence of thrombosis", "result": "little or no effect"}]}
